c1ccc2c(c1)sc1ccccc12
Conditions | solubility (mole fraction)
in 2-(2-butoxyethoxy)ethanol, 282.75 K | 0.063
in 2-(2-butoxyethoxy)ethanol, 285.85 K | 0.0695
in 2-(2-butoxyethoxy)ethanol, 291.65 K | 0.0873
in 2-(2-butoxyethoxy)ethanol, 298.95 K | 0.105
in 2-(2-butoxyethoxy)ethanol, 304.35 K | 0.123
in 2-(2-butoxyethoxy)ethanol, 309.85 K | 0.144
in 2-(2-butoxyethoxy)ethanol, 316.05 K | 0.167
in 2-(2-butoxyethoxy)ethanol, 320.95 K | 0.192
in 2-(2-butoxyethoxy)ethanol, 324.35 K | 0.217
in 2-(2-butoxyethoxy)ethanol, 328.95 K | 0.245
in 2-(2-butoxyethoxy)ethanol, 333.15 K | 0.28
in DMF, 289.45 K | 0.113
in DMF, 294.25 K | 0.131
in DMF, 298.65 K | 0.147
in DMF, 302.65 K | 0.165
in DMF, 306.55 K | 0.184
in DMF, 310.15 K | 0.206
in DMF, 314.35 K | 0.231
in DMF, 318.35 K | 0.257
in DMF, 322.35 K | 0.285
in DMF, 325.55 K | 0.313
in DMF, 329.25 K | 0.344
in DMSO, 292.95 K | 0.0567
in DMSO, 296.45 K | 0.0668
in DMSO, 301.25 K | 0.0791
in DMSO, 306.15 K | 0.0925
in DMSO, 310.15 K | 0.108
in DMSO, 314.85 K | 0.127
in DMSO, 318.05 K | 0.15
in DMSO, 322.95 K | 0.177
in DMSO, 325.45 K | 0.201
in DMSO, 330.15 K | 0.234
in DMSO, 333.25 K | 0.264
in acetone, 300.15 K | 0.0769
in acetone, 301.15 K | 0.0792
in acetone, 303.15 K | 0.0884
in acetone, 308.15 K | 0.107
in acetone, 311.25 K | 0.12
in acetone, 314.65 K | 0.136
in acetone, 317.95 K | 0.156
in acetone, 321.65 K | 0.179
in acetone, 326.25 K | 0.217
in acetone, 330.95 K | 0.261
in acetone, 336.25 K | 0.319
in acetone, 341.15 K | 0.372
in acetonitrile, 289.35 K | 0.0103
in acetonitrile, 290.45 K | 0.0107
in acetonitrile, 293.25 K | 0.0121
in acetonitrile, 297.35 K | 0.0143
in acetonitrile, 302.15 K | 0.0175
in acetonitrile, 304.55 K | 0.0199
in acetonitrile, 309.25 K | 0.0244
in decalin, 294.15 K | 0.0408
in decalin, 296.15 K | 0.042
in decalin, 298.15 K | 0.0445
in decalin, 302.15 K | 0.049
in decalin, 304.15 K | 0.0516
in decalin, 308.15 K | 0.0571
in decalin, 317.15 K | 0.0706
in decalin, 325.15 K | 0.0891
in decalin, 331.15 K | 0.101
in decalin, 337.15 K | 0.107
in diethylene glycol, 287.85 K | 0.00027
in diethylene glycol, 299.95 K | 0.00062
in diethylene glycol, 309.95 K | 0.00093
in diethylene glycol, 314.15 K | 0.00119
in diethylene glycol, 317.65 K | 0.00163
in diethylene glycol, 320.95 K | 0.0023
in diethylene glycol, 324.95 K | 0.00328
in diethylene glycol, 326.85 K | 0.00443
in diethylene glycol, 328.15 K | 0.00619
in diethylene glycol, 330.15 K | 0.00951
in diethylene glycol, 332.35 K | 0.0143
in diethylene glycol, 334.15 K | 0.0203
in ethanol, 294.55 K | 0.0062
in ethanol, 300.25 K | 0.0074
in ethanol, 303.85 K | 0.0082
in ethanol, 306.45 K | 0.0092
in ethanol, 310.25 K | 0.0106
in ethanol, 313.95 K | 0.0121
in ethanol, 318.95 K | 0.0141
in ethanol, 322.55 K | 0.0164
in ethanol, 327.35 K | 0.0197
in ethanol, 331.15 K | 0.0239
in n-octane, 292.05 K | 0.0232
in n-octane, 294.15 K | 0.0244
in n-octane, 297.15 K | 0.0277
in n-octane, 300.05 K | 0.0317
in n-octane, 304.15 K | 0.0373
in n-octane, 308.25 K | 0.0438
in n-octane, 314.15 K | 0.0521
in n-octane, 318.15 K | 0.062
in n-octane, 325.15 K | 0.0767
in n-octane, 337.15 K | 0.0995
in n-propanol, 288.05 K | 0.0065
in n-propanol, 295.95 K | 0.0083
in n-propanol, 300.15 K | 0.0099
in n-propanol, 303.85 K | 0.0118
in n-propanol, 307.85 K | 0.0143
in n-propanol, 314.65 K | 0.0183
in n-propanol, 320.65 K | 0.0232
in n-propanol, 324.05 K | 0.0292
in n-propanol, 328.95 K | 0.0363
in n-propanol, 332.25 K | 0.043
in n-propanol, 336.05 K | 0.0486
in sulfolane, 297.65 K | 0.0541
in sulfolane, 299.45 K | 0.0563
in sulfolane, 301.75 K | 0.0609
in sulfolane, 303.45 K | 0.0712
in sulfolane, 309.15 K | 0.0923
in sulfolane, 313.35 K | 0.109
in sulfolane, 317.05 K | 0.125
in sulfolane, 321.05 K | 0.144
in sulfolane, 324.85 K | 0.163
in sulfolane, 327.75 K | 0.185
in sulfolane, 331.75 K | 0.214
in sulfolane, 334.75 K | 0.242
in sulfolane, 338.25 K | 0.271
in sulfolane, 340.45 K | 0.294

Reference: BigSolDB 2.1
